How the values were obtained:
Type in all cases: functional
Pyricularia oryzae [1] = test: Fungicidal activity against Magnaporthe oryzae assessed as rice blast disease control at 31.3 ppm foliar application for 24 hr before inoculation at 27 +/- 2 degC measured after 5 days by preventive manner
Podosphaera fuliginea [2] = test: Fungicidal activity against Podosphaera fuliginea assessed as cucumber powdery mildew control at 31.3 ppm foliar application 24 hr before inoculation at 23 +/- 2 degC by preventive manner
Botrytis cinerea [3] = test: Fungicidal activity against Botryotinia fuckeliana assessed as cucumber gray mold disease control at 7.8 ppm foliar application […] at 22 +/- 2 degC by preventive manner
[4] = tested on: Blumeria graminis f. sp. tritici; test: Fungicidal activity against Blumeria graminis f. sp. tritici assessed as wheat powdery mildew disease control at 31.3 ppm foliar application for 48 hr before inoculation by preventive manner
Thanatephorus cucumeris [5] = test: Fungicidal activity against Thanatephorus cucumeris assessed as rice sheath blight disease control at 125 ppm foliar application for 24 hr before inoculation at 26 +/- 2 degC measured after 5 days by preventive manner
[6] = tested on: Pseudoperonospora cubensis; test: Fungicidal activity against Pseudoperonospora cubensis assessed as cucumber downy mildew disease control at 125 ppm foliar application 24 hr before inoculation onto the abaxial(untreated) surface of leaf by preventive manner
[7] = tested on: Pseudoperonospora cubensis; test: Fungicidal activity against Pseudoperonospora cubensis assessed as cucumber downy mildew disease control at 125 ppm foliar application 24 hr before inoculation onto the adaxial(treated) surface of leaf by preventive manner
Podosphaera fuliginea [8] = test: Fungicidal activity against Podosphaera fuliginea assessed as cucumber powdery mildew control at 2 ppm foliar application 24 hr before inoculation at 23 +/- 2 degC by preventive manner
Botrytis cinerea [9] = test: Fungicidal activity against Botryotinia fuckeliana assessed as cucumber gray mold disease control at 2 ppm foliar application […] at 22 +/- 2 degC by preventive manner
[10] = tested on: Blumeria graminis f. sp. tritici; test: Fungicidal activity against Blumeria graminis f. sp. tritici assessed as wheat powdery mildew disease control at 2 ppm foliar application for 48 hr before inoculation by preventive manner
[11] = tested on: Pseudoperonospora cubensis; test: Fungicidal activity against Pseudoperonospora cubensis assessed as cucumber downy mildew disease control at 31.3 ppm foliar application 24 hr before inoculation onto the abaxial(untreated) surface of leaf by preventive manner
[12] = tested on: Pseudoperonospora cubensis; test: Fungicidal activity against Pseudoperonospora cubensis assessed as cucumber downy mildew disease control at 7.8 ppm foliar application 24 hr before inoculation onto the adaxial(treated) surface of leaf by preventive manner
Thanatephorus cucumeris [13] = test: Fungicidal activity against Thanatephorus cucumeris assessed as rice sheath blight disease control at 7.8 ppm foliar application for 24 hr before inoculation at 26 +/- 2 degC measured after 5 days by preventive manner
Pyricularia oryzae [14] = test: Fungicidal activity against Magnaporthe oryzae assessed as rice blast disease control at 125 ppm foliar application for 24 hr before inoculation at 27 +/- 2 degC measured after 5 days by preventive manner
Podosphaera fuliginea [15] = test: Fungicidal activity against Podosphaera fuliginea assessed as cucumber powdery mildew control at 7.8 ppm foliar application 24 hr before inoculation at 23 +/- 2 degC by preventive manner
[16] = tested on: Pseudoperonospora cubensis; test: Fungicidal activity against Pseudoperonospora cubensis assessed as cucumber downy mildew disease control at 2 ppm foliar application 24 hr before inoculation onto the adaxial(treated) surface of leaf by preventive manner
Pyricularia oryzae [17] = test: Fungicidal activity against Magnaporthe oryzae assessed as rice blast disease control at 2 ppm foliar application for 24 hr before inoculation at 27 +/- 2 degC measured after 5 days by preventive manner
Botrytis cinerea [18] = test: Fungicidal activity against Botryotinia fuckeliana assessed as cucumber gray mold disease control at 31.3 ppm foliar application […] at 22 +/- 2 degC by preventive manner
Podosphaera fuliginea [19] = test: Fungicidal activity against Podosphaera fuliginea assessed as cucumber powdery mildew control at 125 ppm foliar application 24 hr before inoculation at 23 +/- 2 degC by preventive manner
Botrytis cinerea [20] = test: Fungicidal activity against Botryotinia fuckeliana assessed as cucumber gray mold disease control at 125 ppm foliar application […] at 22 +/- 2 degC by preventive manner
[21] = tested on: Blumeria graminis f. sp. tritici; test: Fungicidal activity against Blumeria graminis f. sp. tritici assessed as wheat powdery mildew disease control at 125 ppm foliar application for 48 hr before inoculation by preventive manner
[22] = tested on: Pseudoperonospora cubensis; test: Fungicidal activity against Pseudoperonospora cubensis assessed as cucumber downy mildew disease control at 31.3 ppm foliar application 24 hr before inoculation onto the adaxial(treated) surface of leaf by preventive manner
[23] = tested on: Blumeria graminis f. sp. tritici; test: Fungicidal activity against Blumeria graminis f. sp. tritici assessed as wheat powdery mildew disease control at 7.8 ppm foliar application 48 24 hr before inoculation by preventive manner
Thanatephorus cucumeris [24] = test: Fungicidal activity against Thanatephorus cucumeris assessed as rice sheath blight disease control at 31.3 ppm foliar application for 24 hr before inoculation at 26 +/- 2 degC measured after 5 days by preventive manner
Pyricularia oryzae [25] = test: Fungicidal activity against Magnaporthe oryzae assessed as rice blast disease control at 7.8 ppm foliar application for 24 hr before inoculation at 27 +/- 2 degC measured after 5 days by preventive manner
[26] = tested on: Pseudoperonospora cubensis; test: Fungicidal activity against Pseudoperonospora cubensis assessed as cucumber downy mildew disease control at 7.8 ppm foliar application 24 hr before inoculation onto the abaxial(untreated) surface of leaf by preventive manner
Pyricularia oryzae [27] = test: Fungicidal activity against Magnaporthe oryzae assessed as rice blast disease control at 125 ppm foliar application for 24 hr after inoculation at 27 +/- 2 degC measured after 5 days by curative manner
[28] = tested on: Blumeria graminis f. sp. tritici; test: Fungicidal activity against Blumeria graminis f. sp. tritici assessed as wheat powdery mildew disease control at 125 ppm foliar application for 48 hr after inoculation by curative manner
Podosphaera fuliginea [29] = test: Fungicidal activity against Podosphaera fuliginea assessed as cucumber powdery mildew control at 125 ppm foliar application 24 hr after inoculation at 23 +/- 2 degC by curative manner
Botrytis cinerea [30] = test: Fungicidal activity against Botryotinia fuckeliana assessed as cucumber gray mold disease control at 125 ppm foliar application […] at 22 +/- 2 degC by curative manner

Row | SMILES | Activity (Botrytis cinerea [3]) [%] | Activity (Thanatephorus cucumeris [5]) [%] | Activity [6] [%] | Activity [10] [%] | Activity (Pyricularia oryzae [14]) [%] | Activity [16] [%] | Activity (Podosphaera fuliginea [19]) [%] | Activity (Botrytis cinerea [20]) [%] | Activity [21] [%] | Activity [22] [%] | also measured
1 | CNC(=O)/C(=N/OC)c1ccccc1COc1ccc(F)c(F)c1 | 90 | <90 | <90 | – | – | – | – | – | – | – | Activity (Pyricularia oryzae [1]): 90%; Activity (Podosphaera fuliginea [2]): 90%; Activity [4]: 90%; Activity [7]: <90%
2 | CNC(=O)/C(=N/OC)c1ccccc1COc1ccc(Cl)cc1Cl | – | <90 | – | 90 | – | – | – | – | – | – | Activity (Pyricularia oryzae [1]): 90%; Activity (Podosphaera fuliginea [8]): 90%; Activity (Botrytis cinerea [9]): 90%; Activity [11]: 90%; Activity [12]: 90%
3 | CNC(=O)/C(=N/OC)c1ccccc1COc1ccc(C)cc1C | – | – | 90 | 90 | 90 | 90 | – | – | – | – | Activity (Thanatephorus cucumeris [13]): 90%; Activity (Podosphaera fuliginea [15]): 90%; Activity (Botrytis cinerea [9]): 90%
4 | CNC(=O)/C(=N/OC)c1ccccc1COc1cccc(C)c1C | – | 90 | 90 | – | – | 90 | – | – | – | – | Activity (Pyricularia oryzae [17]): 90%; Activity (Podosphaera fuliginea [2]): 90%; Activity [4]: 90%; Activity (Botrytis cinerea [18]): 90%
5 | CNC(=O)/C(=N/OC)c1ccccc1COc1c(Cl)cccc1Cl | – | <90 | <90 | – | 90 | – | <90 | 90 | – | – | Activity [4]: 90%; Activity [7]: <90%
6 | CNC(=O)/C(=N/OC)c1ccccc1COc1ccccc1OC(C)C | – | <90 | <90 | – | 90 | – | 90 | <90 | <90 | 90 | –
7 | CNC(=O)/C(=N/OC)c1ccccc1COc1ccc(OC(C)C)cc1 | 90 | – | – | – | – | – | – | – | – | 90 | Activity (Pyricularia oryzae [1]): 90%; Activity (Podosphaera fuliginea [15]): 90%; Activity [23]: 90%; Activity (Thanatephorus cucumeris [24]): 90%; Activity [11]: 90%
8 | CNC(=O)/C(=N/OC)c1ccccc1COc1c(Cl)ccc(Cl)c1Cl | – | <90 | <90 | – | 90 | – | 90 | 90 | 90 | 90 | –
9 | CNC(=O)/C(=N/OC)c1ccccc1COc1ccccc1C | 90 | – | 90 | 90 | – | 90 | – | – | – | – | Activity (Pyricularia oryzae [17]): 90%; Activity (Podosphaera fuliginea [8]): 90%; Activity (Thanatephorus cucumeris [24]): 90%
10 | CNC(=O)/C(=N/OC)c1ccccc1COc1ccc(C#N)cc1 | – | <90 | 90 | – | <90 | – | <90 | – | 90 | 90 | Activity (Botrytis cinerea [18]): 90%
11 | CNC(=O)/C(=N/OC)c1ccccc1COc1ccc(Cl)c(C)c1 | 90 | <90 | – | 90 | – | 90 | – | – | – | – | Activity (Pyricularia oryzae [25]): 90%; Activity (Podosphaera fuliginea [15]): 90%; Activity [26]: 90%
12 | CNC(=O)/C(=N\OC)c1ccccc1COc1cccc(OC(C)C)c1 | – | – | – | – | 90 | – | – | 90 | <90 | – | Activity (Pyricularia oryzae [27]): <90%; Activity (Podosphaera fuliginea [2]): 90%; Activity [28]: 90%; Activity (Podosphaera fuliginea [29]): 90%; Activity (Botrytis cinerea [30]): <90%
13 | CNC(=O)/C(=N/OC)c1ccccc1COc1cccc(-c2ccccc2)c1 | – | – | – | – | – | 90 | – | – | – | – | Activity (Pyricularia oryzae [17]): 90%; Activity (Podosphaera fuliginea [8]): 90%; Activity (Botrytis cinerea [9]): 90%; Activity [23]: 90%; Activity (Thanatephorus cucumeris [24]): 90%; Activity [26]: 90%
